# Test results: patent publication US20220281848A1, “PYRAZOLE-SUBSTITUTED PYRROLIDINONES AS HERBICIDES” (FMC Corporation, priority 2019, published 2022)
# Experiments:
# [1] = system: velvetleaf (Abutilon theophrasti, ABUTH); assay: Test A post-emergence, velvetleaf; assay type: in vivo; conditions: after 13 d
# How it was run: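 Plants were grown 8 d in a glasshouse (24/16° C day/night, 14 h light, 65% humidity), then sprayed post-emergence at 15.625, 62.5 or 250 g/ha in acetone/water (50:50) with 0.5% Tween 20. Damage was scored visually after 13 d (0 = none, 100 = total).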
# plants = assay: Test D post-emergence, other plants of Tables D2 and D4; assay type: in vivo; conditions: for ALOMY damage rating (100=total damage to plant; 0=no damage to plant) / AVEFA damage rating (100=total damage to plant; 0=no damage to plant) / BEAVA damage rating (100=total damage to plant; 0=no damage to plant) / BROTE damage rating (100=total damage to plant; 0=no damage to plant) / BRSNN damage rating (100=total damage to plant; 0=no damage to plant) / CHEAL damage rating (100=total damage to plant; 0=no damage to plant) / GALAP damage rating (100=total damage to plant; 0=no damage to plant) / HORVW damage rating (100=total damage to plant; 0=no damage to plant) / KCHSC damage rating (100=total damage to plant; 0=no damage to plant) / LOLPE damage rating (100=total damage to plant; 0=no damage to plant) / POAAN damage rating (100=total damage to plant; 0=no damage to plant) / POLCO damage rating (100=total damage to plant; 0=no damage to plant) / SINAR damage rating (100=total damage to plant; 0=no damage to plant) / STEME damage rating (100=total damage to plant; 0=no damage to plant) / VERPE damage rating (100=total damage to plant; 0=no damage to plant): "Cereals" Postemergent, evaluated after 15 d; for damage to plant (100=total damage to plant; 0=no damage to plant), ABUTH / damage to plant (100=total damage to plant; 0=no damage to plant), AMARE: post-emergence
# Method: A formulation containing 50 g/L of the test chemical was prepared by dissolving the active ingredient in a mixture of organic solvents and emulsifier, details of which are provided in the table. This formulation was then mixed with a small, variable amount of acetone to aid dissolution, before addition of a 0.2% v/v aqueous solution of an adjuvant, as the aqueous diluent, to form an aqueous spray solution which contains a predetermined concentration of the active ingredient.
# This aqueous spray solution was then sprayed onto plants including maize and wheat that had been seed treated with a herbicide safener, after one day's cultivation (for pre-emergence) or after about 12 days' cultivation (for post-emergence). The plants were grown from seeds sown in standard soil, placed in a glasshouse under controlled conditions (at 24/18° C. or 20/16° C., day/night; 16 h light; 65% humidity). After spray application the plants were then grown in a glasshouse under the same conditions and watered twice daily. After 15 d for post-emergence and 20 DAA for pre-emergence the test was evaluated (100=total damage to plant; 0=no damage to plant).
compound,measurement,setting,value
CN1CC(c2cc(C(F)(F)F)n(C)n2)C(C(=O)Nc2cccc(F)c2F)C1=O (racemic) [Compound 3],damage to plant (100=total damage; 0=no damage) ABUTH,[1]; Post-Emergence at 15.625 g/ha,0
same,damage to plant (100=total damage; 0=no damage) ABUTH,[1]; Post-Emergence at 62.5 g/ha,0
same,damage to plant (100=total damage; 0=no damage) ABUTH,[1]; Post-Emergence at 250 g/ha,0
same,ALOMY damage rating (100=total damage to plant; 0=no damage to plant),plants; Rates 130,0
same,ALOMY damage rating (100=total damage to plant; 0=no damage to plant),plants; Rates 250,0
same,ALOMY damage rating (100=total damage to plant; 0=no damage to plant),plants; Rates 500,20
same,AVEFA damage rating (100=total damage to plant; 0=no damage to plant),plants; Rates 130,0
same,AVEFA damage rating (100=total damage to plant; 0=no damage to plant),plants; Rates 250,0
same,AVEFA damage rating (100=total damage to plant; 0=no damage to plant),plants; Rates 500,30
same,BEAVA damage rating (100=total damage to plant; 0=no damage to plant),plants; Rates 130,0
same,BEAVA damage rating (100=total damage to plant; 0=no damage to plant),plants; Rates 250,10
same,BEAVA damage rating (100=total damage to plant; 0=no damage to plant),plants; Rates 500,10
same,BROTE damage rating (100=total damage to plant; 0=no damage to plant),plants; Rates 130,0
same,BROTE damage rating (100=total damage to plant; 0=no damage to plant),plants; Rates 250,0
same,BROTE damage rating (100=total damage to plant; 0=no damage to plant),plants; Rates 500,0
same,BRSNN damage rating (100=total damage to plant; 0=no damage to plant),plants; Rates 130,10
same,BRSNN damage rating (100=total damage to plant; 0=no damage to plant),plants; Rates 250,10
same,BRSNN damage rating (100=total damage to plant; 0=no damage to plant),plants; Rates 500,0
same,CHEAL damage rating (100=total damage to plant; 0=no damage to plant),plants; Rates 130,0
same,CHEAL damage rating (100=total damage to plant; 0=no damage to plant),plants; Rates 250,0
same,CHEAL damage rating (100=total damage to plant; 0=no damage to plant),plants; Rates 500,0
same,GALAP damage rating (100=total damage to plant; 0=no damage to plant),plants; Rates 130,0
same,GALAP damage rating (100=total damage to plant; 0=no damage to plant),plants; Rates 250,0
same,GALAP damage rating (100=total damage to plant; 0=no damage to plant),plants; Rates 500,0
same,HORVW damage rating (100=total damage to plant; 0=no damage to plant),plants; Rates 130,0
same,HORVW damage rating (100=total damage to plant; 0=no damage to plant),plants; Rates 250,0
same,HORVW damage rating (100=total damage to plant; 0=no damage to plant),plants; Rates 500,30
same,KCHSC damage rating (100=total damage to plant; 0=no damage to plant),plants; Rates 130,0
same,KCHSC damage rating (100=total damage to plant; 0=no damage to plant),plants; Rates 250,0
same,KCHSC damage rating (100=total damage to plant; 0=no damage to plant),plants; Rates 500,0
same,LOLPE damage rating (100=total damage to plant; 0=no damage to plant),plants; Rates 130,0
same,LOLPE damage rating (100=total damage to plant; 0=no damage to plant),plants; Rates 250,0
same,LOLPE damage rating (100=total damage to plant; 0=no damage to plant),plants; Rates 500,0
same,POAAN damage rating (100=total damage to plant; 0=no damage to plant),plants; Rates 130,0
same,POAAN damage rating (100=total damage to plant; 0=no damage to plant),plants; Rates 250,20
same,POAAN damage rating (100=total damage to plant; 0=no damage to plant),plants; Rates 500,50
same,POLCO damage rating (100=total damage to plant; 0=no damage to plant),plants; Rates 130,0
same,POLCO damage rating (100=total damage to plant; 0=no damage to plant),plants; Rates 250,0
same,POLCO damage rating (100=total damage to plant; 0=no damage to plant),plants; Rates 500,0
same,SINAR damage rating (100=total damage to plant; 0=no damage to plant),plants; Rates 130,0
same,SINAR damage rating (100=total damage to plant; 0=no damage to plant),plants; Rates 250,0
same,SINAR damage rating (100=total damage to plant; 0=no damage to plant),plants; Rates 500,10
same,STEME damage rating (100=total damage to plant; 0=no damage to plant),plants; Rates 130,0
same,STEME damage rating (100=total damage to plant; 0=no damage to plant),plants; Rates 250,0
same,STEME damage rating (100=total damage to plant; 0=no damage to plant),plants; Rates 500,10
same,VERPE damage rating (100=total damage to plant; 0=no damage to plant),plants; Rates 130,0
same,VERPE damage rating (100=total damage to plant; 0=no damage to plant),plants; Rates 250,0
same,VERPE damage rating (100=total damage to plant; 0=no damage to plant),plants; Rates 500,60
same,"damage to plant (100=total damage to plant; 0=no damage to plant), ABUTH","plants; rate 130, evaluated after 15 d",0
same,"damage to plant (100=total damage to plant; 0=no damage to plant), ABUTH","plants; rate 250, evaluated after 15 d",0
same,"damage to plant (100=total damage to plant; 0=no damage to plant), ABUTH","plants; rate 500, evaluated after 15 d",0
same,"damage to plant (100=total damage to plant; 0=no damage to plant), AMARE","plants; rate 130, evaluated after 15 d",0
same,"damage to plant (100=total damage to plant; 0=no damage to plant), AMARE","plants; rate 250, evaluated after 15 d",0
same,"damage to plant (100=total damage to plant; 0=no damage to plant), AMARE","plants; rate 500, evaluated after 15 d",10
